Data reported in article PMC11967380, “Rapid Determination of Xa Inhibitor Activity in Blood Using a Microfluidic Device that Measures Platelet Deposition and Fibrin Generation Under Flow” (TH Open: Companion Journal to Thrombosis and Haemostasis, 2025).

Experiments:
[1] = system: whole blood clotting on collagen/tissue factor (platelet and fibrin deposition); test: DOAC reversal and detection in blood of DOAC-treated patients (microfluidic platelet and fibrin signal); format: cell-based, human; settings: 5,000 nM matching DOAC added ex vivo to patient blood, all subjects
Excerpt: Platelets were labeled in whole blood by the addition of an AlexaFluor 488-conjugated anti-CD61 molecule (Bio-Rad Laboratories) and fibrin was quantified via the addition of AlexaFluor 594-conjugated fibrinogen (Life Technologies Co.), as previously described. Chips were mounted on a Lumascope 620 (Etaluma Inc.) LED epifluorescence microscope with a 2.5× objective (Meiji Techno). Each chip was primed with 1% bovine serum albumin (BSA) in HEPES-buffered saline (HBS) to passivate the surfaces ( Fig. 1A ). A volume of 60 μL of whole blood was added to each inlet well. A vacuum pressure of 140 mbar was applied to the outlet to yield an initial wall shear rate of 200 s ^−1 . Fluorescence images were captured at 10 s intervals for green and red LED channels to obtain kinetic data for platelet and fibrin deposition on the collagen/TF zone for up to 25 min. Images were analyzed with ImageJ to calculate the average pixel brightness of an inner 200 μm by 200 μm region within each clot.
For DOAC-treated patients on either rivaroxaban or apixaban, blood samples were obtained and analyzed, using the microfluidic device to measure platelets and fibrin deposition under flow as described above. […] For subjects 1 through 19, fluorescence data were collected for 15 minutes. […]
Statistical significance was calculated for paired t -tests, using GraphPad Prism 9 (GraphPad Software). […]

[2] = design: method as in PMID 31089975, PMID 23999929; settings: cited from earlier work

Structure (SMILES) | fibrin signal [1] | plasma protein binding [2]
COc1ccc(-n2nc(C(N)=O)c3c2C(=O)N(c2ccc(N4CCCCC4=O)cc2)CC3)cc1 [apixaban] | nearly fully suppressed | high
O=C(NC[C@H]1CN(c2ccc(N3CCOCC3=O)cc2)C(=O)O1)c1ccc(Cl)s1 [rivaroxaban] | nearly fully suppressed | high
